In ChEMBL document CHEMBL4052688, “Design, synthesis and biological evaluation of novel 3H-imidazole [4,5-b] pyridine derivatives as selective mTOR inhibitors” (Bioorg Med Chem Lett, 2017):

Tests used:
A2780 = experiment: cells; details: Homo sapiens, A2780, 72 h
Description: Antiproliferative activity against human A2780 cells incubated for 72 hrs by MTT assay

[1] = target: Phosphatidylinositol 4,5-bisphosphate 3-kinase catalytic subunit alpha isoform (Homo sapiens, UniProt P42336); experiment: Inhibition of PI3Kalpha (unknown origin) using lipid substrate by Kinase-Glo plus luminescence kinase assay or and ADP-Glo Plus luminescence kinase assay
[2] = target: Serine/threonine-protein kinase mTOR (Homo sapiens, UniProt P42345); experiment: Inhibition of mTOR (unknown origin) by Kinase-Glo plus luminescence kinase assay or and ADP-Glo Plus luminescence kinase assay
MCF7 = experiment: cells; details: Homo sapiens, MCF7, 72 h
Description: Antiproliferative activity against human MCF7 cells incubated for 72 hrs by MTT assay

Chain of Phosphatidylinositol 4,5-bisphosphate 3-kinase catalytic subunit alpha isoform (P42336 whole entry, canonical isoform): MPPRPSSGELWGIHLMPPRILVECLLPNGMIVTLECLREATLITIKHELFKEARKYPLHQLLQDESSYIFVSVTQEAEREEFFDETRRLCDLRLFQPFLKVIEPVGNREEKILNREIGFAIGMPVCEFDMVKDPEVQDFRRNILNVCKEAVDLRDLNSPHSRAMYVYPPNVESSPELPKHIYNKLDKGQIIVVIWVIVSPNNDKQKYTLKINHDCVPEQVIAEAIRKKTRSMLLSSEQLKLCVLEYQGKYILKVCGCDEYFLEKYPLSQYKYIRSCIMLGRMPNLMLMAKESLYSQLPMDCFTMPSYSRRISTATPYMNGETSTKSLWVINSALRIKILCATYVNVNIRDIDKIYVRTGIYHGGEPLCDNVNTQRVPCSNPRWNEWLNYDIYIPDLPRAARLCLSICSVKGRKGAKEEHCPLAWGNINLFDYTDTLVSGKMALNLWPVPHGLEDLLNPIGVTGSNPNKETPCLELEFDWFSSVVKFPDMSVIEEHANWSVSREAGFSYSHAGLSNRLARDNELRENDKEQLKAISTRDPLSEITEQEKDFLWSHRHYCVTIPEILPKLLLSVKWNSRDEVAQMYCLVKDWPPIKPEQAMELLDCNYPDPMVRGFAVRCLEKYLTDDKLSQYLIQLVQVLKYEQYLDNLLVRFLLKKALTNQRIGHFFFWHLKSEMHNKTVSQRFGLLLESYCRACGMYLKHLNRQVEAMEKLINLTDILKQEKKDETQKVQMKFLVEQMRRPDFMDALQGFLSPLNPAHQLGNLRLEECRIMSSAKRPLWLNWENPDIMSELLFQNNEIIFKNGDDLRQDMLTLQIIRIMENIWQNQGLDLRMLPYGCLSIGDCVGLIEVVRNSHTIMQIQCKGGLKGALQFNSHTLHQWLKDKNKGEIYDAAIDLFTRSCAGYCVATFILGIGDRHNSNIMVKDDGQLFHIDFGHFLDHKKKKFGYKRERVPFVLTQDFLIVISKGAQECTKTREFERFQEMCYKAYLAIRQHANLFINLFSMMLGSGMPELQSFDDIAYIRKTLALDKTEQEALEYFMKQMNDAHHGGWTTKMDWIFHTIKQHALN

SMILES	IC50 (A2780)	IC50 [1]	IC50 [2]	IC50 (MCF7)
CCCn1cnc2c(N3CCOC[C@@H]3C)cc(-c3ccc(NC(=O)NCC)cc3)nc21	3110 nM	> 10 µM	290 nM	64 nM
CCNC(=O)Nc1ccc(-c2cc(N3CCOC[C@@H]3C)c3nc(C)n(CC)c3n2)cc1	2710 nM	> 10 µM	330 to 332 nM	18 nM
CCNC(=O)Nc1ccc(-c2nc3c(c(N4CCOC[C@@H]4C)n2)CCN(C2COC2)C3)cc1 [RG-7603]	330 nM	4.2 µM	39 nM	5.8 nM
